Counter-ions that a name gives are not always drawn. Like-named read-outs stand apart in the source and are kept apart here. Marks after values point to notes of the source that are not given here.
How the values were obtained:
p70 S6K = molecular target: T1, p70 S6K (Homo sapiens, UniProt P23443); test: Determination of p70 S6K In Vivo Target Inhibition (HCT 116); parameters: species or system athymic nude mice; conditions: HCT 116 xenograft, PO; potency based on plasma exposure; phosphorylation of S6RP serine 240/244
T1 construct: endogenous in cells; host or cells: HCT 116 human colon carcinoma xenograft tumours in athymic nude mice
T1 sequence (P23443 whole entry): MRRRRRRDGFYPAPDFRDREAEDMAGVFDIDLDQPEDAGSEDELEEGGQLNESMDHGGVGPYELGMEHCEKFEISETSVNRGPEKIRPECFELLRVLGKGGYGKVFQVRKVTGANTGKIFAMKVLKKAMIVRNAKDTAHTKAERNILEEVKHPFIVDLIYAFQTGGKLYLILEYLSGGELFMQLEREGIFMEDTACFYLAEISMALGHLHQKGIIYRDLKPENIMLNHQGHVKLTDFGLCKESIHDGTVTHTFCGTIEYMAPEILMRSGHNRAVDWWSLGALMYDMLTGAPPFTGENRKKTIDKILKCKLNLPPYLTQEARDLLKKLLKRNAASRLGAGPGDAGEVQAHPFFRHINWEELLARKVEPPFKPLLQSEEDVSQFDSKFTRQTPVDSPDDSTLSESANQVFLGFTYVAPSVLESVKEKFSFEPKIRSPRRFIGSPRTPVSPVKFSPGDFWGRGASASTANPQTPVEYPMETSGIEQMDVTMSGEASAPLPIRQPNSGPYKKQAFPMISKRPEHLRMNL
Description: HCT 116 human colon carcinoma cells* (5×10^6) are subcutaneously implanted into the flank of athymic nude mice in 0.2 mL of matrigel. Two weeks post-implantation, mice are dosed PO according to a time course, single dose/single time point, or dose response protocol for the determination of TMED50 (threshold minimum effective dose). Tumors are flash frozen at harvest and blood is collected for the determination of parent compound plasma exposure and the calculation of TMEC50 (threshold minimum effective concentration) in the case of dose response studies. Tumors or tissues are homogenized in XY Lysis buffer (10 μg/mL Leupeptin, 10 μg/mL Trypsin-Chymotrypsin Inhibitor, 10 μg/mL Tosyl phenylalanyl chloromethyl ketone (TPCK), 10 μg/mL Aprotinin, 60 mM Beta-Glycerol Phosphate, 1% Triton X100, 25 mM Tris pH 7.5, 2.5 mM Pyrophosphate, 150 mM NaCl, 2 mM p-tosyl-L-arginine methyl ester (TAME), 15 mM para-nitrophenyl phosphate (pNPP), 5 mM Benzamidine, 1 mM Na Vanadate, 10 mM NaF, 50 μg/mL phenylmethane sulofnyl fluoride (PMSF), 1 mM DTT, 15 mM EDTA pH 8.0, 5 mM EGTA pH 8.0, 1 μM Microcystin, 1 μM Okadaic Acid, and 1 Roche Complete protease inhibitor mini-tablet per 10 mL) using Lysing Matrix A tubes (MP Biomedicals, Solon, Ohio, cat# 6910-500) and a BIO101 Thermo Savant Fast Prep FP12. Lysates are aliquoted and either assayed immediately or stored at −80° C. for later testing. In Vivo Target Inhibition of p70 S6K is measured utilizing Meso Scale Discovery (Gaithersburg, Md.) ELISA technology to assess effects of the compound on phosphorylation of the serine 240/244 site of the downstream effector S6RP. Phosphorylation of p70 S6K(T389) and Akt(S473) is also assessed using this technology in a multiplex format. In summary, 20 μg of lysate is added to a carbon electrode 96-well plate pre-spotted with the appropriate capture antibodies. The protein of interest is probed using a ruthenium labeled detection antibody. Upon the passage of current over the electrode in the presence of read buffer containing the co-reactant TPA, electro-chemiluminescence results in the generation of light which is quantified and recorded using the MSD Sector 6000 instrument. For each study, percent inhibitions are calculated relative to the vehicle control group and ANOVA analysis is performed using the JMP software package for the determination of statistical significance. The following compounds were tested essentially as described above and have the following potencies based on plasma exposure.

P70 S6 kinase (T412E) = molecular target: T2, P70 S6 kinase (T412E) (Homo sapiens, UniProt P23443, T412E); test: Inhibition of p70S6 Kinase; type: biochemical; conditions: 25 μM ATP, 5 nM enzyme, relative IC50
T2 construct: purchased Upstate USA, Inc. (Charlottesville, Va.)
T2 sequence (P23443 whole entry T412E): as the sequence (P23443 whole entry) above, with T412E counted along it
Description: P70 S6 kinase (T412E) from Upstate USA, Inc. (Charlottesville, Va.) is preincubated with 10 concentrations of compound in a 15 μL volume for 30 min at room temperature in 96-well plates. PKA, PKC, MAPKAP-K1 Substrate from AnaSpec (San Jose, Calif.) and gamma ^33P-ATP from PerkinElmer (Waltham, Mass.) is added to initiate the reaction which is allowed to proceed for 60 minutes at room temperature in a final 25 μL volume under the following conditions: 10 mM HEPES pH 7.5, 10 mM MgCl2, 1.0 mM DTT, 0.082 mM EGTA, 0.005% TRITON X-100™, 25 μM, 25 μM ATP, 40 μCi/mL, 4 μM substrate, and 5 nM enzyme. Reactions are terminated with 75 μL 10% H3PO4 and 85 μL of quenched reaction mix is transferred to a phosphocellulose filter plate (Millipore #MAPHN0B50) and washed with 0.5% H3PO4 using a vacuum manifold. 100 μL of Microscint 20 (Packard #60113621) is added to each well and plates with liner are counted using a Wallac Beta Counter. Relative IC50 values are calculated by non-linear four parameter fitting.

[1] = test system: HUVEC / neo NHDF co-culture cord formation; test: Angiogenesis Cord Formation Assay; type: cell-based; conditions: Homo sapiens, 288 h
Description: Human neonatal dermal fibroblast cells (neo NHDF) are seeded into Parkard 96 well plate on the first day, and incubated in the 37° C. and 5% CO2 incubator. Human umbilical vein endothelial cells (HUVEC) are then plated on the top of neo NHDF cells. Starting the third day, the co-culture is treated with eight-dose series of the test compound (starting with 20 μM, 1:3 serial dilution) in the presence of 20 ng/mL vascular endothelial growth factor (VEGF). The compound and VEGF are replenished every two to three days. The assay is conducted over a 12 day period. Cells are fixed by cold 70% ethanol for 30 minutes on the 12th day and processed for anti human CD31 immunofluorescence. Cultures are incubated with mouse anti human CD31 antibody and then stained by goat anti mouse alexa 488 secondary antibody. Cells are also stained by Hoechst to visualize the nucleus. After the staining, the cord formation is captured and quantified using Cellomics Arrayscan® VTI high content image analysis platform adopting the tube formation BioApplication. Two parameters, the cord area and angiogenesis index, are used to calculate the relative potency of the test compound in this angiogenesis assay. The compounds of Examples 5 and 10 were tested and analyzed essentially as described above.

[2] = test system: HCT 116 human colon carcinoma cells; test: Determination of p70 S6K In Vivo Efficacy (HCT 116 xenograft tumor growth); parameters: species or system athymic nude mice
Description: HCT 116 human colon carcinoma cells (5×10^6) are subcutaneously implanted into the flank of athymic nude mice in 0.2 mL of matrigel. One week post-implantation, mice are dosed PO according to the pharmacokinetics and the pharmacodynamics of the molecule to maintain 30-50% or 60-90% pS6 Inhibition over a 24 hr period. Dosing is continued for at least 21 days. Tumor volumes are measured bi-weekly to evaluate drug related tumor growth reduction utilizing standard methods. At the end of the study, tumors are flash-frozen at harvest and blood is collected for the determination of parent compound plasma exposure. The compound of Example 5 was tested essentially as described above.

U87MG = test: Cell assay (Alamar Blue, 72 hours) U87MG; type: cell-based; conditions: Homo sapiens, U-87 MG
Description: (§1) Cells are maintained, then typsinized and suspended in Dulbecco's modified Eagle's medium (DMEM_containing 10% fetal bovine serum (FBS), 25 mM 4-(2-hydroxyethyl)-1-piperazineethanesulfonic acid (HEPES), 1.0 mM Sodium Pyruvate and 0.1 mM Non Essential Amino Acids (NEAA). 1×10^3 HCT116 and 2×10^3 Cells may be seeded in 50 μL in 96 well plates and incubated in 5% CO2 at 37° C. overnight. Compounds are prepared at desired starting concentrations and serial diluted in DMSO. 4 μL of diluted compounds are transferred in 1 mL 10% FBS DMEM to make up 2× concentrations as added 50 μL to the 50 μL in the presence of cells for dosing. The plates are incubated at 37° C. in 5% CO2 for 72 hours. At the end of incubation period, 10 μL Alamar Blue is added and after 2 hours reaction the measurement is determined in CytoFluor at 530 nm excitation, 580 nm emission and Gain 45. The following compounds were tested in the following cell lines essentially as described above.

A549 = test: Cell assay (Alamar Blue, 72 hours) A549; type: cell-based; conditions: Homo sapiens
Description: as §1

Rat 13762 = test: Cell assay (Alamar Blue, 72 hours) Rat 13762; type: cell-based
Description: as §1

A2780 = test: Cell assay (Alamar Blue, 72 hours) A2780; type: cell-based; conditions: Homo sapiens
Description: as §1

Oral bioavailability = type: in vivo; conditions: rat, plasma; Sprague Dawley rats, 1 mg/kg (IV) or 10 mg/kg (oral gavage)
Description: The bioavailability of compounds of the present invention may be measured by methods known to the skilled artisan. For example a compound of Formula I is administered to Sprague Dawley rats at doses of 1 mg/kg (IV) or 10 mg/kg (oral gavage) in a conventional formulation. An oral formulation may include a suspension (0.25% PS80, 1% HEC, 0.05% Antifoam in water) using milled compound of Formula I. Plasma samples are obtained and concentrations of the compound of Formula I are measured. The compound of Example 57 was evaluated in a method substantially similar to that described above and found to have an oral bioavailability of >100%.

PANC-1 = test: Cell assay (Alamar Blue, 72 hours) PANC-1; type: cell-based; conditions: Homo sapiens
Description: as §1

NCI-H460 = test: Cell assay (Alamar Blue, 72 hours) NCI-H460; type: cell-based; conditions: Homo sapiens
Description: as §1

PC3 = test: Cell assay (Alamar Blue, 72 hours) PC3; type: cell-based; conditions: Homo sapiens, PC-3
Description: as §1

K562 = test: Cell assay (Alamar Blue, 72 hours) K562; type: cell-based; conditions: Homo sapiens
Description: as §1

In the case of `Fc1ccc(-c2cnc(C3CCN(c4ncnc5[nH]cnc45)CC3)[nH]2)cc1C(F)(F)F` [Example 8, 6-{4-[5-(4-Fluoro-3-trifluoromethyl-phenyl)-1H-imidazol-2-yl]-piperidin-1-yl}-9H-purine hydrochloride], the IC50 (p70 S6K) is reported as 47.7 µM and the IC50 (P70 S6 kinase (T412E)) is reported as 0.00758 µM.
`Cn1cc(-c2ccc(F)c(C(F)(F)F)c2)nc1C1CCN(c2ncnc3[nH]ncc23)CC1` [Example 10, 4-{4-[4-(4-Fluoro-3-trifluoromethyl-phenyl)-1-methyl-1H-imidazol-2-yl]-piperidin-1-yl}-1H-pyrazolo[3,4-d]pyrimidine hydrochloride] showed an IC50 (p70 S6K) of 1.97 µM, an IC50 (P70 S6 kinase (T412E)) of 0.00379 µM and an IC50 [1] of 4.78 µM.
Work on `Fc1ccc(-c2c[nH]c(C3CCN(c4ncnc5[nH]ccc45)CC3)n2)cc1C(F)(F)F` [Example 7, 4-{4-[4-(4-Fluoro-3-trifluoromethyl-phenyl)-1H-imidazol-2-yl]-piperidin-1-yl}-7H-pyrrolo[2,3-d]pyrimidine hydrochloride] yielded an IC50 (p70 S6K) of 1.92 µM and an IC50 (P70 S6 kinase (T412E)) of 0.0103 µM.
In the case of `Cl.FC(F)(F)c1cccc(-c2c[nH]c(C3CCN(c4ncnc5[nH]ncc45)CC3)n2)c1` [Example 5, 4-{4-[4-(3-(Trifluoromethyl)-phenyl)-1H-imidazol-2-yl]-piperidin-1-yl}-1H-pyrazolo[3,4-d]pyrimidine hydrochloride], the “Tumor Volume” value ([2]; 30 mg/kg PO (BID × 21), Day 8, mean of 10 animals) is reported as 36.5 mm^3, the “Tumor Volume” value ([2]; 30 mg/kg PO (BID × 21), Day 13, mean of 10 animals) is reported as 58.7 mm^3 and the “Tumor Volume” value ([2]; 30 mg/kg PO (BID × 21), Day 16, mean of 10 animals) is reported as 90.9 mm^3. The “Tumor Volume” value ([2]; 30 mg/kg PO (BID × 21), Day 20, mean of 10 animals) was 134.6 mm^3, the “Tumor Volume” value ([2]; 30 mg/kg PO (BID × 21), Day 23, mean of 10 animals) was 192.7 mm^3 and the “Tumor Volume” value ([2]; 30 mg/kg PO (BID × 21), Day 27, mean of 10 animals) was 296.3 mm^3. The “Tumor Volume” value ([2]; 60 mg/kg PO (BID × 21), Day 8, mean of 10 animals ± standard deviation) was 28.8 ± 2.6^b mm^3, the “Tumor Volume” value ([2]; 60 mg/kg PO (BID × 21), Day 13, mean of 10 animals ± standard deviation) was 42.1 ± 6.2*** mm^3 and the “Tumor Volume” value ([2]; 60 mg/kg PO (BID × 21), Day 16, mean of 10 animals ± standard deviation) was 72.1 ± 11.8*** mm^3. For the same molecule, the “Tumor Volume” value ([2]; 60 mg/kg PO (BID × 21), Day 20, mean of 10 animals ± standard deviation) was 139.0 ± 26.4*** mm^3, the “Tumor Volume” value ([2]; 60 mg/kg PO (BID × 21), Day 23, mean of 10 animals ± standard deviation) was 188.4 ± 25.9*** mm^3 and the “Tumor Volume” value ([2]; 60 mg/kg PO (BID × 21), Day 27, mean of 10 animals ± standard deviation) was 280.0 ± 36.1*** mm^3. For the same molecule, the “Tumor Volume” value ([2]; 60 mg/kg PO (QD × 21), Day 8, mean of 10 animals ± standard deviation) was 30.6 ± 3.4^b mm^3, the “Tumor Volume” value ([2]; 60 mg/kg PO (QD × 21), Day 13, mean of 10 animals ± standard deviation) was 57.8 ± 10.7** mm^3 and the “Tumor Volume” value ([2]; 60 mg/kg PO (QD × 21), Day 16, mean of 10 animals ± standard deviation) was 85.0 ± 13.3*** mm^3. For the same molecule, the “Tumor Volume” value ([2]; 60 mg/kg PO (QD × 21), Day 20, mean of 10 animals ± standard deviation) was 142.5 ± 18.4*** mm^3, the “Tumor Volume” value ([2]; 60 mg/kg PO (QD × 21), Day 23, mean of 10 animals ± standard deviation) was 194.5 ± 25.7*** mm^3 and the “Tumor Volume” value ([2]; 60 mg/kg PO (QD × 21), Day 27, mean of 10 animals ± standard deviation) was 252.7 ± 34.4*** mm^3. It also gave an IC50 (U87MG) of 14.6 µM, an IC50 (p70 S6K) of 7.3 µM and an IC50 (A549) of 22 µM. The IC50 (P70 S6 kinase (T412E)) was 0.0294 µM, the melting point was 306 °C and the IC50 ([1]; 20 ng/mL VEGF, 12 day, cord area and angiogenesis index, read-out: IC50) was 2.92 µM.
With `Cc1ccc(S(=O)(=O)O)cc1.Cn1cc(-c2ccc(F)c(C(F)(F)F)c2)nc1C1CCN(c2ncnc3[nH]ncc23)CC1` [Example 57, 4-{4-[4-(4-Fluoro-3-trifluoromethyl-phenyl)-1-methyl-1H-imidazol-2-yl]-piperidin-1-yl}-1H-pyrazolo[3,4-d]pyrimidine p-toluenesulfonate] the IC50 (Rat 13762) was 51.6 µM, the IC50 (A2780) was 25.1 µM and the bioavailability (Oral bioavailability) was over 100%. It also gave an IC50 (U87MG) of 27.5 µM, an IC50 (A549) of 10.3 µM and an IC50 (P70 S6 kinase (T412E)) of 0.0127 µM. The IC50 (PANC-1) was 30.2 µM, the IC50 (NCI-H460) was 24 µM and the IC50 (PC3) was 31.9 µM. The IC50 (K562) was 16.5 µM.
